This is an account of results in ChEMBL document CHEMBL4007391, “Tackling Fungal Resistance by Biofilm Inhibitors” (J Med Chem, 2017).

Where a name gives a salt, the structure may show the parent alone.

Data set [1] has as its system Candida albicans. As to the kind of experiment: Antibiofilm activity against Candida albicans SC5314 after 24 hrs by XTT assay. Type of data set: functional. To be noted: SC5314, 24 h. A general note: Tetrazolium assays rely on reduction of a dye to a coloured formazan, in cell work by metabolically active cells.
The nature of data set [2]: Cytotoxicity against human HepG2 assessed as reduction in cell viability after 24 hrs by CellTiter-Glo luminescent assay. The settings on record: HepG2 cells. Format: cell-based.
Data set [3] has as its system Candida albicans. As to the kind of experiment: Antibiofilm activity against Candida albicans CAF2-1 after 48 hrs by Alamar blue assay. Type of data set: functional. To be noted: CAF2-1, 48 h. (In general: Alamar Blue is a resazurin reagent that responds to reducing activity.)
In data set [4] the test system is Candida albicans. As to the kind of experiment: Antibiofilm activity against Candida albicans SC5314 after 48 hrs by Alamar blue assay. Type of data set: functional. The settings on record: SC5314, 48 h.
Data set [5] has as its system Candida albicans. As to the kind of experiment: Antibiofilm activity against fluconazole-resistant Candida albicans 29E clinical isolates after 48 hrs by Alamar blue assay. Type of data set: functional.
Data set [6] deals with Candida albicans. As to the kind of experiment: Inhibition of filament formation of tet-NRG1 expressing Candida albicans after 2 to 24 hrs. Format: functional.
Data set [7] has as its system Candida albicans. As to the kind of experiment: Antibiofilm activity against Candida albicans SC5314 clinical isolates after 24 hrs by XTT assay. To be noted: Candida albicans, SC5314, 24 h. Type of data set: functional.
For data set [8], the system named is Candida albicans. Briefly: Antibiofilm activity against Candida albicans DAY185 after 24 hrs by XTT assay. Format: functional.
Data set [9] has as its system Candida albicans. As to the kind of experiment: Antifungal activity against Candida albicans DAY185 by CLSI method. Type of data set: functional.
In data set [10] the test system is Candida. As to the kind of experiment: Antifungal activity against Candida after 48 hrs by broth microdilution assay. Format: functional. On the technique in general: In broth dilution the organism is exposed to a series of concentrations in liquid medium.
Data set [11] concerns Candida. Briefly: Antifungal activity against drug-resistant Candida spp. clinical isolates after 48 hrs by broth microdilution assay. Type of data set: functional.
In data set [12] the test system is Candida albicans. As to the kind of experiment: Antibiofilm activity against Candida albicans SC5314 after 24 hrs in presence of miconazole by Cell-Titer Blue assay. Type of data set: functional.

As a reminder, the IC50 is the point on the concentration scale where inhibition reaches its midpoint. Low values mean higher potency, high ones lower potency. Usually CC50 stands for the concentration giving 50% cytotoxicity. `Nc1cc(S(N)(=O)=O)ccc1SSc1ccc(S(N)(=O)=O)cc1N` returned an IC50 in the data set on Candida albicans [1] of 3.45 µM. Moreover, the CC50 at 24 h in [2] is 106 µM.

Regarding `CCN1/C(=C\c2ccc3ccccc3[n+]2CC)Sc2cc(C)ccc21`, the IC50 in the data set on Candida albicans [3], in the data set on Candida albicans [4] and in the data set with Candida albicans [5] was 2.8 to 82.1 µM each time.

For the compound `CCN1/C(=C/c2ccc3cc(C)ccc3[n+]2CC)Sc2cc(C)c(C)cc21`, the IC50 with Candida albicans [3], in the data set on Candida albicans [4] and in the data set with Candida albicans [5] was 231 to 268 µM in each case.

For the compound `Cc1ccccc1OCc1n(CC(=O)OC2CC(C)CCC2C(C)C)c2ccccc2[n+]1C` (centres undefined), the IC50 in the data set with Candida albicans [3], with Candida albicans [4] and in the data set on Candida albicans [5] was 9.8 to 24.3 µM each time.

As for `CCC(CO)N1C(C)=CC(=Cc2sc3ccccc3[n+]2Cc2ccccc2)C=C1C` (centres undefined), the IC50 in the data set on Candida albicans [3], with Candida albicans [4] and in the data set on Candida albicans [5] was 1.7 to 119 µM throughout.

As to `CCN(CC)CCN1c2ccccc2Sc2ccc3ccccc3c21`, in data set [2], the CC50 at 24 h was determined as 50.8 µM. The same compound gave an IC50 with Candida albicans [6] of 3.8 µM.

As for `CC1OC(CC(=O)O)Cc2c(O)c3c(c(O)c21)C(=O)C=C(C1=CC(=O)c2c(O)c4c(c(O)c2C1=O)CC(CC(=O)O)OC4C)C3=O` (centres undefined), it took 3.31 µM to reach half-maximal inhibition in the data set with Candida albicans [1] (IC50). In addition, the CC50 at 24 h in data set [2] came to 96.1 µM.

In the data set with Candida albicans [7], `Cc1cc(OCCOCC[N+](C)(C)Cc2ccccc2)ccc1C(C)(C)CC(C)(C)C` gave an IC50 of 8.9 µM.

In general, MIC refers to the least concentration at which growth counts as inhibited. For `CCCCCCCCCC(=O)[C@H]1C(=O)N[C@@H](CC(C)C)C(=O)N[C@H](C)C(=O)N2CCC[C@H]2C(=O)N[C@@H](C(C)C)C(=O)N[C@H]2CS[C@H]1CNC2=O`, in the data set on Candida albicans [8], the IC50 is more than 200 µM. This compound also gave an MIC against Candida albicans [9] of more than 200 µM.

`CCCCCCCCCC(=O)[C@@H]1C(=O)N[C@@H](CC(C)C)C(=O)N[C@H](C)C(=O)N2CCC[C@H]2C(=O)N[C@@H](C(C)C)C(=O)N[C@H]2CS[C@H]1CNC2=O` had an IC50 in the data set on Candida albicans [8] of 3.4 µM. Also, in the data set with Candida albicans [9], the MIC was more than 200 µM.

The compound `Cc1c(CN2CCC3(CCCN(Cc4ccc(C(C)C)cc4)C3=O)C2)cnn1C` (centres undefined) registered an IC50 in the data set with Candida albicans [1] of 3.15 µM. For the same compound, the CC50 at 24 h in data set [2] fell in the range of 62.7 to 104 µM.

The compound `CCCCCCCCCC(=O)[C@@H]1C(=O)N[C@@H](CC(C)C)C(=O)N[C@H](C)C(=O)N2CCC[C@H]2C(=O)N[C@@H]([C@@H](C)CC)C(=O)N[C@H]2CS[C@H]1CNC2=O` had an IC50 in the data set on Candida albicans [8] of 9.1 µM. The MIC against Candida albicans [9] was more than 200 µM.

With `CC[C@@]1([C@@H]2O[C@@H]([C@H]3O[C@@](O)(CO)[C@H](C)C[C@@H]3C)C[C@@H]2C)CC[C@H]([C@]2(C)CCC3(C[C@H](O)[C@@H](C)[C@@H]([C@@H](C)[C@@H](OC)[C@H](C)C(=O)O)O3)O2)O1` (some centres undefined), the IC50 in the data set with Candida albicans [7] came to 6.4 µM.

For `CC(C)c1ccc(CN2CCCC3(CCN(CC4CCSCC4)C3)C2=O)cc1` (centres undefined), it took 3.36 µM to reach half-maximal inhibition with Candida albicans [1] (IC50). In addition, the CC50 at 24 h in data set [2] lay within 62.7 to 104 µM.

In turn, `CC[C@H](C)[C@H](N)C1=N[C@H](C(=O)N[C@@H](CC(C)C)C(=O)N[C@H](CCC(=O)O)C(=O)N[C@@H](C(=O)N[C@@H]2CCCCNC(=O)[C@H](CC(N)=O)NC(=O)[C@@H](CC(=O)O)NC(=O)[C@H](Cc3cnc[nH]3)NC(=O)[C@@H](Cc3ccccc3)NC(=O)[C@H]([C@@H](C)CC)NC(=O)[C@@H](CCCN)NC2=O)[C@@H](C)CC)CS1` registered a half-inhibitory concentration (IC50) in the data set with Candida albicans [1] of 2.13 µM. In addition, the CC50 at 24 h in data set [2] came out at 286 µM.

In the data set on Candida albicans [8], `CCCCCCCCCC(=O)C1C(=O)N[C@@H](CC(C)C)C(=O)N[C@H](C)C(=O)N2CCC[C@H]2C(=O)N[C@@H](C(C)C)C(=O)N[C@@H](CC)C(=O)NCC1O` (some centres undefined) showed a 50% inhibitory concentration (IC50) of 5.3 µM. In the data set on Candida albicans [9], the MIC was more than 200 µM.

In the case of `CC[C@H](C)C1NC(=O)[C@@H](CCCN)NC(=O)[C@@H](NC(=O)[C@@H](NC(=O)[C@@H](CCC(=O)O)NC(=O)[C@H](CC(C)C)NC(=O)[C@@H]2CSC([C@@H](N)[C@@H](C)CC)=N2)[C@@H](C)CC)CCCCNC(=O)[C@H](CC(N)=O)NC(=O)[C@@H](CC(=O)O)NC(=O)[C@H](Cc2c[nH]cn2)NC(=O)[C@@H](Cc2ccccc2)NC1=O` (some centres undefined), in the data set with Candida albicans [7], the IC50 stood at 17 µM.

Consider `CN(C)c1ccc(/C=C/c2cc(C(C)(C)C)[o+]c(C(C)(C)C)c2)cc1.[O-][Cl+3]([O-])([O-])[O-]`, for which the results for the MIC in the data set on Candida [10] and in the data set on Candida [11] were 0.2 to 6.25 µg/mL and 0.5 to 1 µg/mL, respectively.

Turning to `CC(C)c1ccc(CN2CCCC3(CCN(Cc4cccnc4)C3)C2=O)cc1` (centres undefined), the IC50 with Candida albicans [1] came to 4.59 µM. In addition, the CC50 at 24 h in data set [2] fell in the range of 62.7 to 104 µM.

Compound `Cc1ncc(CN2CCC3(CCCN(Cc4ccc(C(C)C)cc4)C3=O)C2)cn1` (centres undefined) registered an IC50 in the data set on Candida albicans [1] of 2.7 µM. Also, the CC50 at 24 h in data set [2] was 62.7 to 104 µM.

As to `CO[C@H]1O[C@@H]2O[C@@]3(C)CC[C@H]4[C@H](C)CC[C@@H]([C@H]1C)[C@@]24OO3`, in the data set with Candida albicans [12], the “fractional inhibitory concentration index (FICI)” value is 0.112.

In the data set on Candida albicans [7], `CCCCC(CC)CNC(=N)NC(=N)NCCCCCCNC(=N)NC(=N)NCC(CC)CCCC` (centres undefined) [ALEXIDINE DIHYDROCHLORIDE] had an IC50 of 5.4 µM.

Turning to `C[C@@H]1CC[C@H]2[C@@H](C)C(=O)O[C@@H]3O[C@@]4(C)CC[C@@H]1[C@]32OO4` [ARTEMISININ], the “fractional inhibitory concentration index (FICI)” value with Candida albicans [12] came out at 0.186.
